Experiment [1] concerns the target T1, PPARγ (Homo sapiens, UniProt P37231).
T1 construct: gene PPARG; His-tagged PPARγ LBD
T1 sequence (P37231 231-505 limits assumed): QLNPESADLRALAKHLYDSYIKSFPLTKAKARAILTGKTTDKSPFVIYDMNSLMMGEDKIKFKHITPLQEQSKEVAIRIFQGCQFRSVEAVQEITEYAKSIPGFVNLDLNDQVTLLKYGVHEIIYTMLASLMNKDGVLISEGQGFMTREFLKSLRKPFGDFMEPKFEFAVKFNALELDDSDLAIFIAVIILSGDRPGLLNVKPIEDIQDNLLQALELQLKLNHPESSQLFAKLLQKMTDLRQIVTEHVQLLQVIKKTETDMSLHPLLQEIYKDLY
The experiment can be described thus: immobilized-receptor affinity cartridge (breakthrough shift); also GAL4 transactivation partial agonist, Emax […]. The format is binding.

Experiment [2] addresses T2, PPARγ (Homo sapiens, UniProt P37231).
T2 construct: gene PPARG
T2 sequence (P37231 222-505): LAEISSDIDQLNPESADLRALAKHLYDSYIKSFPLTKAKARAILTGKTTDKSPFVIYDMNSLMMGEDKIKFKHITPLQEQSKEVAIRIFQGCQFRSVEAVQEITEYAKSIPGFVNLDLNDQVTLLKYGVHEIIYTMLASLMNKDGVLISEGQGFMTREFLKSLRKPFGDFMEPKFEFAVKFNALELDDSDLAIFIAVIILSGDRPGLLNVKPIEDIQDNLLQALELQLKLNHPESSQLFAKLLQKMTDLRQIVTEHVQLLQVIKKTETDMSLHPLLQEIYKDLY
The experiment can be described thus: ITC (reverse titration) and X-ray crystal structure; also affinity cartridge and GAL4 antagonist assay (IC50 […]). Type of experiment: binding.

pKd: −log10 of the molar value.

Broadly, the pKd is −log10 of the Kd, conventionally taken in molar units.

On to `CC1=CC(=O)c2c(O)cccc2C1=O` [plumbagin], for which the “immobilized-receptor affinity cartridge (breakthrough shift); also GAL4 transact” value in experiment [1] was “only three ligands (i.e., plumbagin, BA and coumarin) interact with the receptor”.
In turn, `C=C(C)[C@@H]1CC[C@]2(C(=O)O)CC[C@]3(C)[C@H](CC[C@@H]4[C@@]5(C)CC[C@H](O)C(C)(C)[C@@H]5CC[C@]43C)[C@@H]12` [BA, betulinic acid] gave a pKd in experiment [2] of 5.40.

The values are drawn from PMC5516003, “Betulinic acid is a PPARγ antagonist that improves glucose uptake, promotes osteogenesis and inhibits adipogenesis” (Scientific Reports, 2017).
